Assay results published in PubChem BioAssay (NCI).
“And” between values parts separate entries of the source, which are not always exact repeats. Equal values may be shown once.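 Step 1: Grow cells in 96-well plates. Step 2: Expose to compound for 48 hours at 5 concentrations. Step 3: Interpolate endpoints linearly; if unreached, use highest concentration. Abbreviation: GI50, concentration required for 50% inhibition of growth. TGI: concentration producing complete growth inhibition.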

Columns and labels:
Assay in all cases: inhibition of tumour cell growth, NCI panel, 48 h
[1] = tested on: 786-0 renal
[2] = tested on: A498 renal
[3] = tested on: A549 NSCLC
[4] = tested on: ACHN renal
[5] = tested on: CCRF-CEM leukemia
[6] = tested on: COLO 205 colon
[7] = tested on: DMS 114 small cell lung
[8] = tested on: DMS 273 small cell lung
[9] = tested on: EKVX NSCLC
[10] = tested on: HCT-116 colon
[11] = tested on: HCT-15 colon
[12] = tested on: HOP-18 NSCLC
[13] = tested on: HOP-92 NSCLC
[14] = tested on: HT29 colon
[15] = tested on: IGROV1 ovarian
[16] = tested on: K-562 leukemia
[17] = tested on: KM12 colon
[18] = tested on: KM20L2 colon
[19] = tested on: LOX IMVI melanoma
[20] = tested on: LXFL 529 NSCLC
[21] = tested on: M14 melanoma
[22] = tested on: M19-MEL melanoma
[23] = tested on: MALME-3M melanoma
[24] = tested on: MOLT-4 leukemia
[25] = tested on: NCI-H226 lung
[26] = tested on: NCI-H23 lung
[27] = tested on: NCI-H460 lung
[28] = tested on: NCI-H522 lung
[29] = tested on: OVCAR-3 ovarian
[30] = tested on: OVCAR-4 ovarian
[31] = tested on: OVCAR-5 ovarian
[32] = tested on: OVCAR-8 ovarian
[33] = tested on: RPMI-8226 leukemia
[34] = tested on: RXF 393 renal
[35] = tested on: SF-268 CNS
[36] = tested on: SF-295 CNS
[37] = tested on: SF-539 CNS
[38] = tested on: SK-MEL-2 melanoma
[39] = tested on: SK-MEL-28 melanoma
[40] = tested on: SK-MEL-5 melanoma
[41] = tested on: SK-OV-3 ovarian
[42] = tested on: SN12C renal
[43] = tested on: SNB-19 CNS
[44] = tested on: SNB-75 CNS
[45] = tested on: SNB-78 CNS
[46] = tested on: SW-620 colon
[47] = tested on: TK-10 renal
[48] = tested on: U251 CNS
[49] = tested on: UACC-257 melanoma
[50] = tested on: UACC-62 melanoma
[51] = tested on: UO-31 renal
[52] = tested on: XF 498 CNS
[53] = tested on: BT-549 breast
[54] = tested on: CAKI-1 renal
[55] = tested on: DLD-1 colon
[56] = tested on: DU-145 prostate
[57] = tested on: HCC-2998 colon
[58] = tested on: HL-60(TB) leukemia
[59] = tested on: HOP-62 NSCLC
[60] = tested on: HS 578T breast
[61] = tested on: MCF7 breast
[62] = tested on: MDA-MB-231 breast
[63] = tested on: MDA-MB-435
[64] = tested on: NCI/ADR-RES ovarian
[65] = tested on: PC-3 prostate
[66] = tested on: SR leukemia
[67] = tested on: T-47D breast

COc1ccc(C=O)c(NC(=O)C(C)C)c1
TGI [1]: > 100000 nM | TGI [2]: > 100000 nM | TGI [3]: > 100000 nM | TGI [4]: > 100000 nM | TGI [5]: > 10000 nM | TGI [6]: 34100 nM | TGI [7]: 88700 nM | TGI [8]: > 100000 nM | TGI [9]: > 100000 nM | TGI [10]: 31200 nM | TGI [11]: > 100000 nM | TGI [12]: 90600 nM | TGI [13]: 53500 nM | TGI [14]: > 100000 nM | TGI [15]: > 100000 nM | TGI [16]: > 100000 nM | TGI [17]: > 10000 nM | TGI [18]: > 100000 nM | TGI [19]: > 100000 nM | TGI [20]: > 100000 nM | TGI [21]: > 100000 nM | TGI [22]: 49500 nM | TGI [23]: 94400 nM | TGI [24]: 74700 nM | TGI [25]: > 10000 nM | TGI [26]: > 100000 nM | TGI [27]: > 100000 nM | TGI [28]: 46300 nM | TGI [29]: > 100000 nM | TGI [30]: > 100000 nM | TGI [31]: > 100000 nM | TGI [32]: > 100000 nM | TGI [33]: 66300 nM | TGI [34]: 64500 nM | TGI [35]: > 100000 nM | TGI [36]: > 100000 nM | TGI [37]: > 100000 nM | TGI [38]: > 100000 nM | TGI [39]: > 100000 nM | TGI [40]: > 10000 nM | TGI [41]: > 100000 nM | TGI [42]: 57600 nM | TGI [43]: > 100000 nM | TGI [44]: > 100000 nM | TGI [45]: > 100000 nM | TGI [46]: > 10000 nM | TGI [47]: > 100000 nM | TGI [48]: > 100000 nM | TGI [49]: > 100000 nM | TGI [50]: > 100000 nM | TGI [51]: 82600 nM | TGI [52]: 68900 nM

C/C1=C\[C@@H](O)C(=O)/C=C/C=C\c2csc(n2)[C@@H](C)NC(=O)C[C@@]2(CC1)S(=O)SC(=O)[C@]2(C)O (stereo partly specified)
TGI [1]: 35.4 nM and 10.8 nM | TGI [2]: 27.2 nM | TGI [3]: 713 nM and 368 nM | GI50 [4]: 4.33 nM | TGI [4]: 38 nM and 12.2 nM | TGI [53]: 6.2 nM | TGI [54]: 19.1 nM | TGI [5]: > 100000 nM | TGI [6]: 90.3 nM and 41.8 nM | TGI [55]: 213 nM and 23.3 nM | TGI [7]: 169 nM and 22 nM | TGI [8]: 106 nM | TGI [56]: 114 nM | TGI [9]: 612 nM | TGI [57]: 676 nM | GI50 [10]: 4.5 nM | TGI [10]: 25.9 nM | TGI [58]: 7360 nM | TGI [12]: 178 nM | GI50 [59]: 280 nM | TGI [59]: 374 nM and 1830 nM | TGI [13]: 11 nM | TGI [60]: 435 nM | GI50 [15]: 23.7 nM | TGI [15]: 552 nM and 230 nM | TGI [16]: > 100000 nM | TGI [18]: 636 nM and 599 nM | TGI [19]: 60.5 nM | TGI [20]: 33.3 nM and 18.7 nM | TGI [21]: 39.7 nM | TGI [23]: 25 nM | TGI [61]: 10.1 nM | TGI [62]: 265 nM | TGI [63]: 56.2 nM | GI50 [24]: > 100000 nM | GI50 [25]: 25.4 nM | TGI [25]: 558 nM and 327 nM | TGI [26]: 27.5 nM and 10.2 nM | TGI [27]: 270 nM and 327 nM | TGI [28]: 10.5 nM | TGI [64]: 110 nM | TGI [30]: 79.3 nM | GI50 [31]: 16.9 nM | TGI [31]: 699 nM and 145 nM | TGI [32]: 62.4 nM and 15.2 nM | TGI [65]: 38.7 nM | GI50 [33]: > 100000 nM | TGI [33]: > 100000 nM | TGI [34]: 33.1 nM | TGI [35]: 285 nM and 60 nM | GI50 [36]: 53 nM | TGI [36]: 590 nM and 3730 nM | TGI [37]: 49.5 nM and 23 nM | TGI [38]: 14.8 nM | TGI [39]: 72.7 nM and 16.8 nM | TGI [40]: 43.5 nM and 16.8 nM | GI50 [41]: 181 nM | TGI [41]: 472 nM and 2740 nM | TGI [42]: 88.2 nM and 19.2 nM | GI50 [43]: 1150 nM | TGI [43]: 511 nM and 2870 nM | TGI [44]: 99.5 nM and 21.9 nM | TGI [45]: 58.9 nM | GI50 [66]: > 100000 nM | TGI [46]: 14.3 nM | TGI [67]: 21.7 nM | GI50 [47]: 13.1 nM | TGI [47]: 861 nM and 138 nM | GI50 [48]: 12.2 nM | TGI [48]: 209 nM and 267 nM | TGI [49]: 115 nM and 22.2 nM | TGI [50]: 48.7 nM | TGI [51]: 88.9 nM

Cc1ccc(S(=O)OC2C3CC4CC(C3)CC2C4)cc1 (stereo unspecified)
TGI [1]: > 100000 nM | TGI [2]: > 100000 nM | TGI [3]: > 100000 nM | TGI [4]: > 100000 nM | TGI [54]: > 100000 nM | TGI [6]: > 100000 nM | TGI [55]: > 100000 nM | TGI [7]: > 100000 nM | TGI [8]: > 100000 nM | TGI [9]: > 100000 nM | TGI [57]: > 100000 nM | TGI [10]: > 100000 nM | TGI [11]: > 100000 nM | TGI [58]: > 100000 nM | TGI [12]: > 100000 nM | TGI [59]: > 100000 nM | TGI [13]: > 100000 nM | TGI [14]: > 100000 nM | TGI [15]: > 100000 nM | TGI [16]: > 100000 nM | TGI [17]: > 100000 nM | TGI [18]: > 100000 nM | TGI [19]: > 100000 nM | TGI [20]: > 100000 nM | TGI [21]: > 100000 nM | TGI [22]: > 100000 nM | TGI [23]: > 100000 nM | TGI [24]: > 100000 nM | TGI [25]: > 100000 nM | TGI [26]: > 100000 nM | TGI [27]: > 100000 nM | TGI [28]: > 100000 nM | TGI [29]: > 100000 nM | TGI [30]: > 100000 nM | TGI [31]: > 100000 nM | TGI [32]: > 100000 nM | TGI [33]: > 100000 nM | TGI [34]: > 100000 nM | TGI [35]: > 100000 nM | TGI [36]: > 100000 nM | TGI [37]: > 100000 nM | TGI [39]: > 100000 nM | TGI [40]: > 100000 nM | TGI [41]: > 100000 nM | TGI [42]: > 100000 nM | TGI [43]: > 100000 nM | TGI [44]: > 100000 nM | TGI [45]: > 100000 nM | TGI [66]: > 100000 nM | TGI [46]: > 100000 nM | TGI [47]: > 100000 nM | TGI [48]: > 100000 nM | TGI [49]: > 100000 nM | TGI [50]: > 100000 nM | TGI [51]: > 100000 nM | TGI [52]: > 100000 nM
